Data set [1] relates to MCF7. The data set can be described thus: Antitumor activity against MCF7 cells. It counts as functional, cell-based. The following applies: Homo sapiens.
The test system of data set [2] is MCF7. Nature of the data set: Inhibition of tumor growth in MCF7 cells xenografted BALB/c mouse at 10 mg/kg/day, ip after 30 days. It counts as functional, Homo sapiens. The following applies: 720 h, route intraperitoneal.
Data set [3] deals with MCF7. The data set can be described thus: Inhibition of tumor growth in MCF7 cells xenografted BALB/c mouse at 10 mg/kg/day, po after 30 days. In kind it is functional, Homo sapiens. The following applies: MCF7, 720 h.
Data set [4] deals with Glycogen synthase kinase-3 beta (Homo sapiens) (UniProt P49841). Nature of the data set: Inhibition of GSK3-beta activity in PC3 cells. It counts as cell-based. The note with it: PC-3.
Glycogen synthase kinase-3 beta (Homo sapiens), sequence (P49841 whole entry, looked up): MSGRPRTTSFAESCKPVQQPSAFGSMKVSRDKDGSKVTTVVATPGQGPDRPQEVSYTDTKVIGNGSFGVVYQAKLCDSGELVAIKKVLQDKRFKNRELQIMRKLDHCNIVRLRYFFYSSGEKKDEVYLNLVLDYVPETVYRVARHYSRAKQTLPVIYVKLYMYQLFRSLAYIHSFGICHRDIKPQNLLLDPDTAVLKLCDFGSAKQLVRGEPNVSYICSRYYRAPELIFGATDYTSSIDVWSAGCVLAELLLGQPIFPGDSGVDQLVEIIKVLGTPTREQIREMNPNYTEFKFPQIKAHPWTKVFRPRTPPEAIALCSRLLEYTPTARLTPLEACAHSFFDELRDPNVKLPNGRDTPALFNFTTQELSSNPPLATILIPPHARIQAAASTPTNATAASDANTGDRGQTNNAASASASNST
The test system of data set [5] is PC-3. Nature of the data set: Inhibition of serum-stimulated AKT phosphorylation in PC3 cells. It counts as cell-based. The note with it: Homo sapiens.
The test system of the next data set is MDA-MB-468. Nature of the data set: Inhibition of serum-stimulated AKT phosphorylation in MDA-MB-468 cells. In kind it is cell-based. The note with it: Homo sapiens.
Data set [6] deals with Mus musculus. Nature of the data set: Toxicity assessed as effect on fasting glucose level in mouse at 500 mg/kg/day, po after 14 days. It counts as organism-based. Further details: route oral. The note with it: in vivo, 336 h.
Data set [7] deals with Mus musculus. Nature of the data set: Toxicity assessed as effect on body weight of mouse at 500 mg/kg/day, po after 14 days. It counts as organism-based. Further details: route oral. The note with it: in vivo, 336 h.
Data set [8] deals with RAC-alpha serine/threonine-protein kinase (Homo sapiens) (UniProt P31749). Nature of the data set: Inhibition of Akt1.
RAC-alpha serine/threonine-protein kinase (Homo sapiens), sequence (P31749 whole entry): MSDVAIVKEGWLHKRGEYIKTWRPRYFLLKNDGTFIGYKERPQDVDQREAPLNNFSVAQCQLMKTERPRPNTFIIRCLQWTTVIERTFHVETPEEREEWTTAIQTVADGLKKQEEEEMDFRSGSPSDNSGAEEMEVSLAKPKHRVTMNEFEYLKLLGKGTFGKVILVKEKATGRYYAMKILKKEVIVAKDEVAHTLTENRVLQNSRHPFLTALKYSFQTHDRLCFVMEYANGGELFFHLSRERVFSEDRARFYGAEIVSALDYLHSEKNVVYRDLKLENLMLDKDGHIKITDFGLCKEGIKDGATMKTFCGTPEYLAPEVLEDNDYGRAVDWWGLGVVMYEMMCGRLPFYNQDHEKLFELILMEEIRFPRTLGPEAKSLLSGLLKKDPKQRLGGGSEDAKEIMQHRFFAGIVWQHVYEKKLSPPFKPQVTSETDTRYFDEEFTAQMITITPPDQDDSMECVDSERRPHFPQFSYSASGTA
Data set [9] addresses RAC-gamma serine/threonine-protein kinase (Homo sapiens) (UniProt Q9Y243). The data set can be described thus: Inhibition of Akt3.
Data set [10] addresses RAC-beta serine/threonine-protein kinase (Homo sapiens) (UniProt P31751). Nature of the data set: Inhibition of Akt2.
The species entered for the next data set is Homo sapiens. Nature of the data set: Inhibition of PI3K.
For data set [11], the target named is T1, 3-phosphoinositide-dependent protein kinase 1 (Homo sapiens) (UniProt O15530).
T1 sequence (whole entry): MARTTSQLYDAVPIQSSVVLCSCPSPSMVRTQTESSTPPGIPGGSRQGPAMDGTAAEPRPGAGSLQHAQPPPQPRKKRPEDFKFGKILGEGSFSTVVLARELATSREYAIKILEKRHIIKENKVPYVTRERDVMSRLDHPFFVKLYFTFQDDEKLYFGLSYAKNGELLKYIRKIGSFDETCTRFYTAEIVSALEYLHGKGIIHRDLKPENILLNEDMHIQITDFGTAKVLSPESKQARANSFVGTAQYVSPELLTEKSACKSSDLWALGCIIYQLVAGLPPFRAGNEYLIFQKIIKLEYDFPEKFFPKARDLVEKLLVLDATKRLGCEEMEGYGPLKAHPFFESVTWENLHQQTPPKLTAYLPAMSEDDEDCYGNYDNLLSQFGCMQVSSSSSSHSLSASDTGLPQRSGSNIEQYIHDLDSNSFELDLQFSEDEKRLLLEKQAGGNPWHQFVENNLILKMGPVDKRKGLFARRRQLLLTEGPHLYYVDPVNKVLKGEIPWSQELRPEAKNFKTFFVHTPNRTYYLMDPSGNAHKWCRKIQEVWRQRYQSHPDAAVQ
The data set can be described thus: Inhibition of PDK1.

Data set [12] concerns Rattus norvegicus. The data set can be described thus: Toxicity in Sprague-Dawley rat at 25 mg/kg/day, po after 14 days. In kind it is organism-based. The arrangement: route oral. The following applies: in vivo, 336 h.
The subject of data set [13] is Rattus norvegicus. Nature of the data set: Toxicity in Sprague-Dawley rat at 75 mg/kg/day, po after 14 days. It counts as organism-based. Further details: route oral. The note with it: in vivo, 336 h.
The subject of data set [14] is Rattus norvegicus. The data set can be described thus: Toxicity in Sprague-Dawley rat at 200 mg/kg/day, po after 14 days. It counts as organism-based. Further details: route oral. The note with it: in vivo, 336 h.
Data set [15] has as its system Rattus norvegicus. The data set can be described thus: Toxicity in Sprague-Dawley rat at 600 mg/kg/day, po after 14 days. The following applies: in vivo, 336 h. Further details: route oral. In kind it is organism-based.
For data set [16], the species on record is Mus musculus. The data set can be described thus: Genotoxicity by mouse micronucleus test. In kind it is toxicity, organism-based. The note with it: in vivo.
The subject of another data set is MDA-MB-231. The data set can be described thus: Inhibition of tumor growth in MDA-MB-231 cells xenografted po dosed mouse. In kind it is functional, organism-based. The following applies: Homo sapiens.
Data set [17] relates to PC-3. Nature of the data set: Inhibition of tumor growth in PC3 cells xenografted po dosed mouse. It counts as functional, organism-based. The following applies: Homo sapiens.
A further data set has as its system SK-OV-3. Nature of the data set: Inhibition of tumor growth in SKOV3 cells xenografted po dosed mouse. In kind it is functional, organism-based. The note with it: Homo sapiens.

Active and inactive are the calls of the source. The rule behind the calls is not given here.

One may read the IC50 as the concentration at which inhibition is half-maximal. A high value points to weaker potency. One may read the inhibition in vivo as the share of the control response that was lost under treatment. A high value points to a strong effect.

RAC-gamma serine/threonine-protein kinase (Homo sapiens), sequence (Q9Y243 whole entry): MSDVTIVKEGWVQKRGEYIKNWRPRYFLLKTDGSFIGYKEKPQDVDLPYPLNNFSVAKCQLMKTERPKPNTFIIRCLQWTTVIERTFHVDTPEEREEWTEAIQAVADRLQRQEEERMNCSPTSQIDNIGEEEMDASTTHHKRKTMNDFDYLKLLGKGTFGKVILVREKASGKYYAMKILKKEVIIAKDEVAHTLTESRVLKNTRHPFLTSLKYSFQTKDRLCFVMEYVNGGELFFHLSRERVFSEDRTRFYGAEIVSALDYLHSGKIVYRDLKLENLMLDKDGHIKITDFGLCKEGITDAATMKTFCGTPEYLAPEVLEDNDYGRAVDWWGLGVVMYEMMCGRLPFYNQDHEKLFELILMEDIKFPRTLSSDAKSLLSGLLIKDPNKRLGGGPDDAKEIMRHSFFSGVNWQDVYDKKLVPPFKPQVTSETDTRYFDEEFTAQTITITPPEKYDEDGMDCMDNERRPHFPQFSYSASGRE
RAC-beta serine/threonine-protein kinase (Homo sapiens), sequence (P31751 whole entry): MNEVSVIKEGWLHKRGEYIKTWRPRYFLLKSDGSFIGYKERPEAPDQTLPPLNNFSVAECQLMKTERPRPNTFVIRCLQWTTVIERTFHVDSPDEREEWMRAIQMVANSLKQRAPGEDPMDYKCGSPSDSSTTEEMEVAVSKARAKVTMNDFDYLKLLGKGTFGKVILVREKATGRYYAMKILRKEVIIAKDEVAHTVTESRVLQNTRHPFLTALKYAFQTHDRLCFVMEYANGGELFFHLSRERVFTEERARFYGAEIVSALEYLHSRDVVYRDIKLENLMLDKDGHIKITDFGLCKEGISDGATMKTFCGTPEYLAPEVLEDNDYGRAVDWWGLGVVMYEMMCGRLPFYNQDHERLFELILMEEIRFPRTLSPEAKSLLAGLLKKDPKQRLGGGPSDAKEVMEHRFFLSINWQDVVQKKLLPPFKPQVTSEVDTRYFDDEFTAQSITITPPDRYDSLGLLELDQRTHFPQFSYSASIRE

In turn, `O=C(O)c1ccc2[nH]cc(Cc3c[nH]c4ccc(C(=O)O)cc34)c2c1` came in with an IC50 with MCF7 [1] of over 10 µM.
For `CCOC(=O)Oc1c2[nH]c3ccccc3c2cc2c1[nH]c1ccccc12`, in the data set on MCF7 [1], the IC50 amounted to 0.08 µM. Moreover, the inhibition in vivo at 10 mg/kg/day was found to be 43% in the data set on MCF7 [2] and 26% in the data set with MCF7 [3].
In the data set on MCF7 [1], `CC(C)(c1c[nH]c2ccccc12)c1c[nH]c2ccccc12` came in with an IC50 of over 10 µM.
`CS(=O)(=O)c1ccc2[nH]cc(Cc3c[nH]c4ccc(S(C)(=O)=O)cc34)c2c1` had a 50% inhibitory concentration (IC50) with MCF7 [1] of over 10 µM.
Same read-out and setting: the figure for `c1cc(-c2c[nH]c3ccccc23)cc(-c2c[nH]c3ccccc23)c1` is over 10 µM.
In the data set with MCF7 [1], `CCOC(=O)c1ccc2[nH]c3c(OC)c4[nH]c5ccc(C(=O)OCC)cc5c4cc3c2c1` [SR-13668] gave a 50% inhibitory concentration (IC50) of 0.19 µM. For the same compound, the outcome (in data set [4]; in the data set with PC-3 [5]; with MDA-MB-468; in the data set on MDA-MB-231; in the data set with PC-3 [17]; in the data set on SK-OV-3) was Active. Also, the Activity result in the data set on Mus musculus [6] is “Active”; with Mus musculus [7], “Active”; with Rattus norvegicus [12], “Non-toxic”; with Rattus norvegicus [13] it was “Non-toxic”; with Rattus norvegicus [14], “Non-toxic”; in the data set on Rattus norvegicus [15], “Non-toxic”. In addition, the Activity entry in the data set filed under Mus musculus [16] was “Non-toxic”. Moreover, the outcome (in data set [8]; in data set [9]; in data set [10]; in the data set listed under Homo sapiens; in data set [11]) was inactive.
In turn, `C=C(c1c[nH]c2ccccc12)c1c[nH]c2ccccc12` registered a concentration for half-maximal inhibition (IC50) with MCF7 [1] of 3.3 µM.
Still for that read-out and setting: the figure for `CCOC(=O)c1ccc2[nH]cc(Cc3c[nH]c4ccc(C(=O)OCC)cc34)c2c1` is 1.75 µM; for `CCOC(=O)c1ccc2[nH]c3c(C(F)(F)C(F)(F)C(F)(F)F)c4[nH]c5ccc(C(=O)OCC)cc5c4cc3c2c1` it is 0.09 µM; for `CCOC(=O)Oc1c2[nH]c3ccc(C(=O)OCC)cc3c2cc2c1[nH]c1ccc(C(=O)OCC)cc12` it is 0.11 µM.
In the data set with MCF7 [1], `c1ccc2[nH]c(Cc3cc4ccccc4[nH]3)cc2c1` yielded a 50% inhibitory concentration (IC50) of 0.94 µM.
On the same count and under the same terms, with `CN(C)C(=O)c1ccc2[nH]cc(Cc3c[nH]c4ccc(C(=O)N(C)C)cc34)c2c1` the figure was over 10 µM.
On the same count and under the same terms, the figure for `c1ccc2c(Cc3c[nH]c4ccccc34)c[nH]c2c1` [ARUNDINE] is 5.5 µM.

Values taken from ChEMBL document CHEMBL1146215, “Computer-aided rational drug design: a novel agent (SR13668) designed to mimic the unique anticancer mechanisms of dietary indole-3-carbinol to block Akt signaling” (J Med Chem, 2007).
